Measured values published in patent US7273856B2, “Linear basic compounds having NK-2 antagonist activity and formulations thereof” (Menarini Ricerche S.P.A., priority 2001, dated 2007).

molecular target: T1, human NK-2 receptor (Homo sapiens, UniProt P21452); assay: binding test, affinity for the human NK-2 receptor, competition with [125I]NKA on transfected CHO cell membranes; conditions: CHO cell membranes transfected with NK-2 receptor of human ileum; [125I]NKA 100 pM; 30 min, 20° C.
T1 construct: expressed in transfected cells; host or cells: CHO (Chinese hamster ovary) cells, membranes
T1 sequence (P21452 1-398): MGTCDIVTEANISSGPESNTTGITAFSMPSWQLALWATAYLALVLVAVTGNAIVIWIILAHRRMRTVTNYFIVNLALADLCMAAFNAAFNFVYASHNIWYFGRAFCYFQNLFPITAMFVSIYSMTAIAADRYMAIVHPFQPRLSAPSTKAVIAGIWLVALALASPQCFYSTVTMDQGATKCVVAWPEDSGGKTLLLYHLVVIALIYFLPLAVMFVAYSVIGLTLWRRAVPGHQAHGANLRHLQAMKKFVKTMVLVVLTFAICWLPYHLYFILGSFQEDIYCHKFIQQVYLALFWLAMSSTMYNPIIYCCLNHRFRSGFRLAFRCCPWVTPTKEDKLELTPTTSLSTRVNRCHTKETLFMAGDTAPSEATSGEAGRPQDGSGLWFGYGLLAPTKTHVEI
Procedure: The evaluation of the antagonist activity on NK-2 receptors has been assessed by binding and functional tests according to that already described in literature in relation to NK-2 antagonists.
The test substances have been tested within a concentration range from 0.01 nM to 10 nM. At the end of the incubation time (30 min, 20° C.) the samples have been filtered and radioactivity has been determined using a gamma-counter.

| Molecule | pKi | Ki [nM] |
| --- | --- | --- |
| Cc1ccc2sc(C(=O)NC3(C(=O)N[C@H](Cc4ccccc4)C(=O)NCC4CCN(CC5CCOCC5)CC4)CCCC3)cc2c1 [Example 138, 5-Methyl-benzo[b]thiophene-2-carboxylic acid [1-(2-phenyl-1R-{[1-(tetrahydro-pyran-4-ylmethyl)piperidin-ylmethyl]-carbamoyl}-ethylcarbamoyl)-cyclopentyl]-amide] | 9.8 | – |
| CCN(CC)c1ccc2cc(C(=O)NC3(C(=O)N[C@H](Cc4ccccc4)C(=O)NCC4CCN(CC5CCOCC5)CC4)CCCC3)oc2c1 [Example 145, 6-Diethylamino-benzofuran-2-carboxylic acid [1-(2-phenyl-1-{[1R-(tetrahydro-pyran-4-ylmethyl)-piperidin-4-ylmethyl)-carbamoyl}-ethylcarbamoyl)-cyclopentyl]-amide] | – | 0.501 |
| COc1ccc2oc(C(=O)NC3(C(=O)N[C@H](Cc4ccccc4)C(=O)NCC4CCN(CC5CCOCC5)CC4)CCCC3)cc2c1 [Example 146, 5-Methoxy-benzofuran-2-carboxylic acid [1-(2-phenyl-1-{[1R-(tetrahydro-pyran-4-ylmethyl)-piperidin-4-ylmethyl]-carbamoyl}-ethylcarbamoyl)-cyclopentyl]-amide] | – | 0.398 |
| CCN(CC)c1ccc2oc(C(=O)NC3(C(=O)N[C@H](Cc4ccccc4)C(=O)NCC4CCN(CC5CCOCC5)CC4)CCCC3)cc2c1 [Example 147] | – | 0.631 |
| Cc1cc2oc(C(=O)NC3(C(=O)N[C@H](Cc4ccccc4)C(=O)NCC4CCN(CC5CCOCC5)CC4)CCCC3)c(C)c2cc1C [Example 148, 3,5,6-Trimethyl-benzofuran-2-carboxylic acid [1-(2-phenyl-1-{[1R-(tetrahydro-pyran-4-ylmethyl)-piperidin-4-ylmethyl]-carbamoyl}-ethylcarbamoyl)-cyclopentyl]-amide] | – | 0.316 |
| O=C(NC1(C(=O)NC(Cc2ccccc2)C(=O)NCC2CCN(CC3CCOCC3)CC2)CCCC1)c1ccc2ccccc2c1 (stereo not drawn) [Example 149, Naphthalene-2-carboxylic acid [1-(2-phenyl-1-{[1R-(tetrahydro-pyran-4-ylmethyl)-piperidin-4ylmethyl]-carbamoyl}-ethylcarbamoyl)-cyclopentyl]-amide] | 9.9 | – |

Continued, values first:

| pKi | Ki [nM] | Molecule |
| --- | --- | --- |
| – | 1.26 | O=C(NC1(C(=O)N[C@H](Cc2ccccc2)C(=O)NCC2CCN(CC3CCOCC3)CC2)CCCC1)c1ccc2ccccc2c1 [Example 151, Naphthalene-2-carboxylic acid [1-(2-phenyl-1R-{[1-(tetrahydro-pyran-4-ylmethyl)-piperidin-4-ylmethyl]-carbamoyl}-ethylcarbamoyl)-cyclopentyl]-amide] |
| – | 0.126 | O=C(NC1(C(=O)N[C@H](Cc2ccccc2)C(=O)NCC2CN(CC3CCOCC3)C2)CCCC1)c1cc2ccccc2s1 [Example 152, Benzo[b]thiophene-2-carboxylic acid [1-(2-phenyl-1(R)-{[1-(tetrahydro-pyran-4-ylmethyl)-azetidin-3-ylmethyl]-carbamoyl}-ethylcarbamoyl)-cyclopentyl]-amide] |
| 9.3 | – | Benzo[b]thiophene-2-carboxylic acid [1-(2-phenyl-1(R)-{[1-(tetrahydro-pyran-4-yl)-piperidin-4-ylmethyl]-carbamoyl}-ethylcarbamoyl)-cyclopentyl]-amide [Example 73] |
| 9.6 | – | N^γ{N^α[N^α(benzo[b]thiophen-2-ylcarbonyl)-1-aminocyclopentan-1-carboxy]-D-phenylalanyl}-(1R,3S)-3-aminocyclopentane-1-carboxylic-acid-N-((1S,2S)2-dimethylaminocyclohexyl) amide hydrochloride salt [Example 8] |
